According to ChEMBL document CHEMBL1909046, “DrugMatrix in vitro pharmacology data”:
pIC50, pKi: −log10 of the molar value.

Key:
[1] = target: T1, Neuropeptide Y receptor type 2 (Homo sapiens, UniProt P49146); format: cell membranes, Membrane; conditions: kan-ts; also: in other assays of this panel Not Active means under 50% inhibition at 10 µM
T1 sequence (P49146 whole entry): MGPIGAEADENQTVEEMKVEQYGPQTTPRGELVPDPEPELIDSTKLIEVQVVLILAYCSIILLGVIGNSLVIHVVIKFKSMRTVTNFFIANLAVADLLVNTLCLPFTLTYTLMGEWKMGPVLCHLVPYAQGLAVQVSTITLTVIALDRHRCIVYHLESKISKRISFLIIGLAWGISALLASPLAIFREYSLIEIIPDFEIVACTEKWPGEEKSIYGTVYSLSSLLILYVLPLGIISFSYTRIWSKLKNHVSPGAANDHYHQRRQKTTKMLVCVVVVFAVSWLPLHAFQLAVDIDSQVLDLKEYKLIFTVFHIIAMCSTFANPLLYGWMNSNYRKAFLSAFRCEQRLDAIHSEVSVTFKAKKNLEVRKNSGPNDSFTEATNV

Neutrophil elastase = target: T2, Neutrophil elastase (Homo sapiens, UniProt P08246); format: tissue-based;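 also: inhibition of neutrophil elastase enzyme activity, measured with a p-nitroanilide-linked peptide substrate; in other assays of this panel Not Active means under 50% inhibition at 10 µM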
T2 sequence (P08246 whole entry): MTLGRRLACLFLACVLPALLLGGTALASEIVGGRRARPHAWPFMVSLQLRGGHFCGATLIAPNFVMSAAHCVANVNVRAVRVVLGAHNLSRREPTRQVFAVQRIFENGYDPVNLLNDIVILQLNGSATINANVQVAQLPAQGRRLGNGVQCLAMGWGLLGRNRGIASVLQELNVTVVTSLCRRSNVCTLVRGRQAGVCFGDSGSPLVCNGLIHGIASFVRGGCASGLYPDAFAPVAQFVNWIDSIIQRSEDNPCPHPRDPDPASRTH

Interstitial collagenase = target: T3, Interstitial collagenase (Homo sapiens, UniProt P03956); assay: biochemical; format: tissue-based, Rheumatoid synovial fibroblasts;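 also: MMP-1 enzyme inhibition assay using a peptide substrate; in other assays of this panel Not Active means under 50% inhibition at 10 µM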
T3 sequence (P03956 whole entry): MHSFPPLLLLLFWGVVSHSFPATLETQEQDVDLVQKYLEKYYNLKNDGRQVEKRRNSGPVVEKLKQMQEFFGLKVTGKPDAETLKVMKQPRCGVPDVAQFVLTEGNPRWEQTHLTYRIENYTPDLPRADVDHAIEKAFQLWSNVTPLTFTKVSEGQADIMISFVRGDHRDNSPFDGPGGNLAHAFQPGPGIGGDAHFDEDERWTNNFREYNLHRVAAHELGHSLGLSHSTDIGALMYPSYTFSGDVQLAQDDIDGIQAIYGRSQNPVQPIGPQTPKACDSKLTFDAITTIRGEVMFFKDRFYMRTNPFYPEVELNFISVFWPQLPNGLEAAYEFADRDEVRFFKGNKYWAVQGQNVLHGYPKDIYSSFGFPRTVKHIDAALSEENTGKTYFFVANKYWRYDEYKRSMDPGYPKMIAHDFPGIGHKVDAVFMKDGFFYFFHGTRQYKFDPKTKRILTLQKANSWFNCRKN

[2] = target: 5-hydroxytryptamine receptor 2B (Homo sapiens, UniProt P41595); format: cell membranes, CHO-K1, Membrane; conditions: for IC50: cho-k1; for pIC50: read-out: IC50; for pKi: read-out: Ki; as to all read-outs here: in other assays of this panel Not Active means under 50% inhibition at 10 µM
[3] = DRUGMATRIX: GABAA, Flunitrazepam, Central radioligand binding (ligand: [3H] Flunitrazepam); format: cell membranes, Rattus norvegicus, Wistar, Brain, Membrane; conditions: Not Active = under 50% inhibition at 10 µM
[4] = DRUGMATRIX: GABAA, Chloride Channel, TBOB radioligand binding (ligand: [3H] TBOB); format: cell membranes, Rattus norvegicus, Wistar, Cerebral cortex, Membrane; conditions: Not Active = under 50% inhibition at 10 µM
[5] = DRUGMATRIX: Phosphodiesterase PDE4 enzyme inhibition (substrate: [3H]cAMP + cAMP); conditions: u-937; Not Active = under 50% inhibition at 10 µM

5-hydroxytryptamine receptor 2B, sequence (P41595 whole entry): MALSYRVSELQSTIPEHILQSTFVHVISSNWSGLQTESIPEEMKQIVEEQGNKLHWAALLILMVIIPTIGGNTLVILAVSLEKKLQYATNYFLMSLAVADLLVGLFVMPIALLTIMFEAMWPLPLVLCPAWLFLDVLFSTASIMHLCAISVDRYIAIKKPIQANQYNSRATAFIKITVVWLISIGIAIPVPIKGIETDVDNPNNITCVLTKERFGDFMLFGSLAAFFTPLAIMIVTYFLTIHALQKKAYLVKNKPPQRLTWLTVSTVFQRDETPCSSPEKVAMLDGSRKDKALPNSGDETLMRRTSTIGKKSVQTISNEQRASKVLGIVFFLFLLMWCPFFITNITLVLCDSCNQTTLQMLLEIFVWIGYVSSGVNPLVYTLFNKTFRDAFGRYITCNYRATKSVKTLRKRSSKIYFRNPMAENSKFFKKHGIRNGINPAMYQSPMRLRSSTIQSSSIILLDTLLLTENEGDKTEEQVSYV

| Compound | IC50 [1] | IC50 (Neutrophil elastase) | IC50 (Interstitial collagenase) | IC50 [2] | IC50 [3] | Ki [3] | IC50 [4] | Ki [4] | IC50 [5] | Ki [5] | pIC50 [2] | pKi [2] | pIC50 ([3]; read-out: IC50) | pKi ([3]; read-out: Ki) |
| --- | --- | --- | --- | --- | --- | --- | --- | --- | --- | --- | --- | --- | --- | --- |
| CC(=O)Oc1ccccc1C(=O)O [ASPIRIN] | Not Active | Not Active | Not Active | Not Active | Not Active | Not Active | Not Active | Not Active | Not Active | Not Active |  |  |  |  |
| CCN(CC)CCNC(=O)c1ccc(N)cc1 [PROCAINAMIDE] | Not Active | Not Active | Not Active | Not Active | Not Active | Not Active | Not Active | Not Active | Not Active | Not Active |  |  |  |  |
| Cc1c(O)cccc1C(=O)N[C@@H](CSc1ccccc1)[C@H](O)CN1C[C@H]2CCCC[C@H]2C[C@H]1C(=O)NC(C)(C)C | Not Active | Not Active | Not Active | Not Active | Not Active | Not Active | Not Active | Not Active | Not Active | Not Active |  |  |  |  |
| Cc1cccc(C)c1NC(=O)C1CCCCN1C (configuration not stated) [MEPIVACAINE] | Not Active | Not Active | Not Active | Not Active | Not Active | Not Active | Not Active | Not Active | Not Active | Not Active |  |  |  |  |
| O=c1[nH]c(=O)n([C@H]2C[C@H](O)[C@@H](CO)O2)cc1F [FLOXURIDINE] | Not Active | Not Active | Not Active | Not Active | Not Active | Not Active | Not Active | Not Active | Not Active | Not Active |  |  |  |  |
| O=C(O)CC(O)(CC(=O)O)C(=O)O [CITRIC ACID] | Not Active | Not Active | Not Active | Not Active | Not Active | Not Active | Not Active | Not Active | Not Active | Not Active |  |  |  |  |
| Cc1cc(O)cc(C)c1Cl [CHLOROXYLENOL] | Not Active | Not Active | Not Active |  | Not Active | Not Active | Not Active | Not Active | Not Active | Not Active | 5.73 | 5.93 |  |  |
| O=C(O)CCCc1cccs1 | Not Active | Not Active | Not Active | Not Active | Not Active | Not Active | Not Active | Not Active | Not Active | Not Active |  |  |  |  |
| CCCNC(=O)NS(=O)(=O)c1ccc(Cl)cc1 [CHLORPROPAMIDE] | Not Active | Not Active | Not Active | Not Active | Not Active | Not Active | Not Active | Not Active | Not Active | Not Active |  |  |  |  |
| CC(=O)OC[C@H]1O[C@@H](n2ncc(=O)[nH]c2=O)[C@H](OC(C)=O)[C@@H]1OC(C)=O [AZARIBINE] | Not Active | Not Active | Not Active | Not Active | Not Active | Not Active | Not Active | Not Active | Not Active | Not Active |  |  |  |  |
| NCCCNCCSP(=O)(O)O [AMIFOSTINE] | Not Active | Not Active | Not Active | Not Active | Not Active | Not Active | Not Active | Not Active | Not Active | Not Active |  |  |  |  |
| CC(C)(C)NCC(O)COc1cccc2c1CC(O)C(O)C2 (configuration not stated) [NADOLOL] | Not Active | Not Active | Not Active | Not Active | Not Active | Not Active | Not Active | Not Active | Not Active | Not Active |  |  |  |  |
| C[C@H]1COc2c(N3CCN(C)CC3)c(F)cc3c(=O)c(C(=O)O)cn1c23.C[C@H]1COc2c(N3CCN(C)CC3)c(F)cc3c(=O)c(C(=O)O)cn1c23.O [LEVOFLOXACIN] | Not Active | Not Active | Not Active | Not Active | Not Active | Not Active | Not Active | Not Active | Not Active | Not Active |  |  |  |  |
| COc1ccnc(C[S+]([O-])c2nc3ccc(OC(F)F)cc3[nH]2)c1OC (configuration not stated) [PANTOPRAZOLE] | Not Active | Not Active | Not Active | Not Active | Not Active | Not Active | Not Active | Not Active | Not Active | Not Active |  |  |  |  |
| CCCCC1=NC2(CCCC2)C(=O)N1Cc1ccc(-c2ccccc2-c2nnn[nH]2)cc1 [IRBESARTAN] | Not Active | Not Active | Not Active | Not Active | Not Active | Not Active | Not Active | Not Active | Not Active | Not Active |  |  |  |  |
| COC(=O)Nc1nc2cc(C(=O)c3ccc(F)cc3)ccc2[nH]1 [FLUBENDAZOLE] | Not Active | Not Active | Not Active | Not Active | Not Active | Not Active | Not Active | Not Active | Not Active | Not Active |  |  |  |  |
| Cc1ccc(C)c(OCCCC(C)(C)C(=O)O)c1 [GEMFIBROZIL] | Not Active | Not Active | Not Active | Not Active | Not Active | Not Active | Not Active | Not Active | Not Active | Not Active |  |  |  |  |
| C[N+](C)(C)C[C@H](O)CC(=O)[O-] [LEVOCARNITINE] | Not Active | Not Active | Not Active | Not Active | Not Active | Not Active | Not Active | Not Active | Not Active | Not Active |  |  |  |  |
| CNC1=Nc2ccc(Cl)cc2C(c2ccccc2)=[N+]([O-])C1 [CHLORDIAZEPOXIDE] | Not Active | Not Active | Not Active | Not Active |  |  | Not Active | Not Active | Not Active | Not Active |  |  | 5.84 | 5.93 |
| CC(O)COC[C@H]1O[C@@H]2O[C@H]3[C@H](O)[C@@H](O)[C@@H](O[C@H]4[C@H](O)[C@@H](O)[C@@H](O[C@H]5[C@H](O)[C@@H](O)[C@@H](O[C@H]6[C@H](O)[C@@H](O)[C@@H](O[C@H]7[C@H](O)[C@@H](O)[C@@H](O[C@H]8[C@H](O)[C@@H](O)[C@@H](O[C@H]1[C@H](O)[C@H]2O)O[C@@H]8COCC(C)O)O[C@@H]7COCC(C)O)O[C@@H]6COCC(C)O)O[C@@H]5COCC(C)O)O[C@@H]4COCC(C)O)O[C@@H]3COCC(C)O (stereo partly drawn) [2-HYDROXYPROPYL-BETA-CYCLODEXTRIN] | Not Active | Not Active | Not Active |  | Not Active | Not Active | Not Active | Not Active | Not Active | Not Active | 7.20 | 7.40 |  |  |
